From patent US9963439B2, “Specific inhibitors of cytochrome P450 26 retinoic acid hydroxylase” (University of Washington Through its Center for …, priority 2013, dated 2018)
Like-named read-outs stand apart in the source and are kept apart here.

Legend:
CYP26A1 = CYP26A1 (Homo sapiens (Human), UniProt O43174); assay: CYP26A1 inhibition assay (9-cis-4-OH-RA formation from 9-cis-RA, recombinant microsomes); assay type: biochemical; conditions: for CYP26A1/CYP26B1: ratio of IC50 values, Table 2; for inhibition at 100 µM: read-out: Maximum inhibition of CYP26A1 observed
Method: (§1) CYP26A1 and CYP26B1 were expressed in Sf9 cells and used as microsomal fractions supplemented with rat P450 reductase expressed in Escherichia coli as described previously. Incubations were performed with 5 pmol of P450 (CYP26A1 or CYP26B1) and 10 pmol of P450 reductase. The purified rat reductase was added to CYP26A1 or CYP26B1 microsomes, and allowed to incorporate into the membrane for 10 min at room temperature. […] Compounds were dissolved in methanol or dimethyl sulfoxide, and final solvent amounts in the incubations were kept at 1%. The samples were preincubated for 5 min at 37° C. before the reaction was initiated with NADPH (final concentration 1 mM). Incubation times were 1 minute and 5 minutes for CYP26A1 and CYP26B1 incubations respectively.
The formation of 9-cis-4-OH-RA metabolite was monitored and the percent activity remaining in the presence of the inhibitor in comparison to the solvent only control was quantified. For IC50 determination, 6-8 concentrations of the inhibitor spanning below and above the predicted IC50 were tested, and each concentration was analyzed in triplicate. The IC50 values were determined by nonlinear regression using GraphPad Prism, according to equation 1:
(§2) [formula] in which 100%*(Vi/V) is the percentage of activity remaining at a given inhibitor (I) concentration, (Vi/V)max*100% is the fitted maximum percentage activity remaining, and (Vi/V)min*100% is the minimum percentage activity remaining.

CYP26B1 [1] = target: T1, CYP26B1 (Homo sapiens (Human), UniProt Q9NR63); assay: CYP26B1 inhibition assay (9-cis-4-OH-RA formation from 9-cis-RA, recombinant microsomes); assay type: biochemical
Method: as §1
The formation of 9-cis-4-OH-RA by CYP26B1 was measured by HPLC as described previously for CYP26A1. Product formation was linear from 1 minute to 8 minutes. […] Five minutes after reactions were initiated with NADPH the reactions were quenched with 5 ml of ethyl acetate, acitretin was added as an internal standard, samples extracted, evaporated to dryness, reconstituted in methanol and analyzed by HPLC as described previously. A standard curve of 9-cis-4-OH-RA was used to quantify product formation by analysis of the peak area of the primary metabolite on an HPLC.
Eighteen compounds were tested as potential inhibitors of CYP26A1 and CYP26B1. The formation of 9-cis-4-OH-RA metabolite was monitored and the percent activity remaining in the presence of the inhibitor in comparison to the solvent only control was quantified. For IC50 determination, 6-8 concentrations of the inhibitor spanning below and above the predicted IC50 were tested, and each concentration was analyzed in triplicate. The IC50 values were determined by nonlinear regression using GraphPad Prism, according to equation 1:
as §2
[formula] in which Kd is the affinity constant of the inhibitor, [I] is the concentration of inhibitor, [E] is the concentration of enzyme, and [EI] is the concentration of the enzyme-inhibitor complex.

CYP26B1 [2] = target: T1, CYP26B1; assay: Michaelis-Menten kinetics of RA hydroxylation by CYP26B1
Method: Incubations were performed with 5 pmol of P450 (CYP26A1 or CYP26B1) and 10 pmol of P450 reductase. The purified rat reductase was added to CYP26A1 or CYP26B1 microsomes, and allowed to incorporate into the membrane for 10 min at room temperature. […] Compounds were dissolved in methanol or dimethyl sulfoxide, and final solvent amounts in the incubations were kept at 1%. The samples were preincubated for 5 min at 37° C. before the reaction was initiated with NADPH (final concentration 1 mM). Incubation times were 1 minute and 5 minutes for CYP26A1 and CYP26B1 incubations respectively.
The formation of 9-cis-4-OH-RA by CYP26B1 was measured by HPLC as described previously for CYP26A1. Product formation was linear from 1 minute to 8 minutes. […] Five minutes after reactions were initiated with NADPH the reactions were quenched with 5 ml of ethyl acetate, acitretin was added as an internal standard, samples extracted, evaporated to dryness, reconstituted in methanol and analyzed by HPLC as described previously. A standard curve of 9-cis-4-OH-RA was used to quantify product formation by analysis of the peak area of the primary metabolite on an HPLC. The Michaelis-Menten equation was fit to the data using GraphPad Prism (GraphPad Software Inc., San Diego, Calif.), and the Km and Vmax values were obtained from this fit.

CYP2C8 = CYP2C8 (Homo sapiens (Human), UniProt P10632); assay: Inhibition of CYP2C8 in pooled human liver microsomes (paclitaxel probe); assay type: in vitro ADME
Method: (§3) Concentrations of organic solvents were kept to <1% (v/v). All incubations were pre-incubated at 37° C. for 5 minutes prior to addition of 1 mM NADPH (final concentration). Incubations were stopped after 5 (CYP3A4) or 15 minutes (CYP2C8 and CYP2C9) with one volume (v/v) of ice-cold acetonitrile containing 0.1 μM tolbutamide as an internal standard. All samples were vortexed and centrifuged prior to LC-MS/MS analysis.
(§4) Detection of 6-hydroxypaclitaxel, 4-hydroxydiclofenac or 1′-hydroxymidazolam was achieved using a Gemini C18 2.0×30 mm 5 column (Phenomenex, Torrance, Calif.). Gradient elution (flow rate=500 μL/min) carried out using a mobile phase system consisting of (A) 5 mM ammonium formate with 0.1% formic acid and (B) acetonitrile with 0.1% formic acid. HPLC flow was diverted from the MS/MS system for the first 20 seconds to remove any non-volatile salts. Generic MS parameters included the curtain gas (10 arbitrary units), CAD gas (medium), ionspray voltage (4500 V), source temperature (450° C.) and ion source gas 1 and gas 2 (40 arbitrary units, each). Interface heaters were kept on for all analytes. Probe substrate mass transitions were identical to previously published methods. Briefly, the LC-MS/MS system utilized was comprised of an Applied Biosystems 4000 Q-Trap equipped with an electrospray ionization source (Applied Biosystems, Foster City, Calif.). The MS/MS system was coupled to two LC-20AD pumps with an in-line CBM-20A controller and DGU-20A5 solvent degasser (shinadzu, Columbia, Md.) and a LEAP CTC HTS PAL autosampler equipped with a dual-solvent self-washing system (CTC Analytics, Carrboro, N.C.). An injection volume of 20 μL was used for all analyses. Standard curves and mass spectrometry data were fit using Analyst (version 1.4; Applied Biosystems, Foster City, Calif.).

CYP3A4 = CYP3A4 (Homo sapiens (Human), UniProt P08684); assay: Inhibition of CYP3A4 in pooled human liver microsomes (midazolam probe); assay type: in vitro ADME
Method: as §3, §4

CYP2C9 = CYP2C9 (Homo sapiens (Human), UniProt P11712); assay: Inhibition of CYP2C9 in pooled human liver microsomes (diclofenac probe)
Method: as §3, §4

[3] = animal models; cited from earlier work
[4] = tested on: cytochromes involved in the biosynthetic pathways of testicular, ovarian and adrenal steroids; conditions: Berth-Jones 2000; Bruynseels 1990; cited from earlier work
[5] = Table 3, unit inferred, read-out: CYP26A1 (IC50)
[6] = Table 3, unit inferred, read-out: CYP2681 (CYP26B1, IC50)
[7] = Table 4, acidic compounds, unit inferred, read-out: CYP26A1 (IC50)
[8] = Table 4, acidic compounds, unit inferred, read-out: CYP26B1 (IC50)
[9] = pooled human liver microsomes, paclitaxel 4 μM
[10] = read-out: CYP2C9 IC50 nM, pooled human liver microsomes, diclofenac 5 μM

T1 sequence (Q9NR63 whole entry): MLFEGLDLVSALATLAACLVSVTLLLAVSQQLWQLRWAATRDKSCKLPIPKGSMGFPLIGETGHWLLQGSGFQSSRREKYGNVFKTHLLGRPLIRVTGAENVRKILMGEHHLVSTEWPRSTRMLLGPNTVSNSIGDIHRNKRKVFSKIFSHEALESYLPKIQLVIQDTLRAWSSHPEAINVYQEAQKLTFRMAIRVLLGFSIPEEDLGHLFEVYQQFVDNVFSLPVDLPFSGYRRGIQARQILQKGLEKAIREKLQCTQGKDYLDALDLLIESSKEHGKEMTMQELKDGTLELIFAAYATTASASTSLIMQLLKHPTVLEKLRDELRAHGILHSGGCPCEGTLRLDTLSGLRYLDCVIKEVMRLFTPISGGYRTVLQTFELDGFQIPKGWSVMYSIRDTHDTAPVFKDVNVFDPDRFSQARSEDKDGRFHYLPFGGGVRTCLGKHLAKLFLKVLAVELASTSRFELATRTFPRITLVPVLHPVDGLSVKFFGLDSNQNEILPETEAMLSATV
Chain of CYP2C8 (P10632 whole entry): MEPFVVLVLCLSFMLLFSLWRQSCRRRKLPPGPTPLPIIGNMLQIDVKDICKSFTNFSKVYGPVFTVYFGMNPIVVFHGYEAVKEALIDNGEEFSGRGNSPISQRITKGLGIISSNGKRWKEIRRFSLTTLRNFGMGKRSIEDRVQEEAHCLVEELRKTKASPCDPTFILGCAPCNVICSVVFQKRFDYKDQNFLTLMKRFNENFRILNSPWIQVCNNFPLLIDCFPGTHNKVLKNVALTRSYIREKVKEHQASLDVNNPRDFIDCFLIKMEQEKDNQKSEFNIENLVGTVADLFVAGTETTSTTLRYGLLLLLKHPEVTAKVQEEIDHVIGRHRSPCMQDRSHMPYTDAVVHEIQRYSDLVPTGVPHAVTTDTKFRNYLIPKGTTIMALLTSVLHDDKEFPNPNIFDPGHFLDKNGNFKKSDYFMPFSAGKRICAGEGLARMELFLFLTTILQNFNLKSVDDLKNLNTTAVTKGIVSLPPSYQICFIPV
Chain of CYP2C9 (P11712 whole entry): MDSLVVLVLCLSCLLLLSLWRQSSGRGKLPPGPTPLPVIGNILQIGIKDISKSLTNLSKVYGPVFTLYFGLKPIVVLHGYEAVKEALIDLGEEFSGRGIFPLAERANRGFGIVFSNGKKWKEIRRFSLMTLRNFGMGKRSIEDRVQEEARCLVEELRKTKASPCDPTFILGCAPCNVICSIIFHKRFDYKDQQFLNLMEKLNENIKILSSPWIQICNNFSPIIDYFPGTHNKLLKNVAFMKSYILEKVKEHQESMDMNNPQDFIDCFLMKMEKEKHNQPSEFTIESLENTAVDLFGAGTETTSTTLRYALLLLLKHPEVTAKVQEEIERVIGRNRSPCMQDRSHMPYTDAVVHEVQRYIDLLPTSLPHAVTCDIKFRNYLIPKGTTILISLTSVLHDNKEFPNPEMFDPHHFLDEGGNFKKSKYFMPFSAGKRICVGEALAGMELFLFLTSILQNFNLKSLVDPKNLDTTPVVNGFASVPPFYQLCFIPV
Chain of CYP26A1 (O43174 whole entry): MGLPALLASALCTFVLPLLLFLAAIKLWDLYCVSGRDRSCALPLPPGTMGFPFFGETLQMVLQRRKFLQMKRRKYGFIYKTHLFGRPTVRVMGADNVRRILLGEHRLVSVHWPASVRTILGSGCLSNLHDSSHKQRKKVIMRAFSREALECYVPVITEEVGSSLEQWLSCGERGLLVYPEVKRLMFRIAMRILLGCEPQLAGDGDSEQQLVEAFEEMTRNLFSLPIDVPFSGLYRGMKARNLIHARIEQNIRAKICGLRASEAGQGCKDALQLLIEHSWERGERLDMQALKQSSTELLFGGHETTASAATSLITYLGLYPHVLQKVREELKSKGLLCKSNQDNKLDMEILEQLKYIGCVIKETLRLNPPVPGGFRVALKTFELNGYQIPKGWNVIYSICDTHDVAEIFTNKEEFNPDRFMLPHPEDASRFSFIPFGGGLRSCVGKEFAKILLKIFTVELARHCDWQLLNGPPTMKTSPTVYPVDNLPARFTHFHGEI
Chain of CYP3A4 (P08684 whole entry): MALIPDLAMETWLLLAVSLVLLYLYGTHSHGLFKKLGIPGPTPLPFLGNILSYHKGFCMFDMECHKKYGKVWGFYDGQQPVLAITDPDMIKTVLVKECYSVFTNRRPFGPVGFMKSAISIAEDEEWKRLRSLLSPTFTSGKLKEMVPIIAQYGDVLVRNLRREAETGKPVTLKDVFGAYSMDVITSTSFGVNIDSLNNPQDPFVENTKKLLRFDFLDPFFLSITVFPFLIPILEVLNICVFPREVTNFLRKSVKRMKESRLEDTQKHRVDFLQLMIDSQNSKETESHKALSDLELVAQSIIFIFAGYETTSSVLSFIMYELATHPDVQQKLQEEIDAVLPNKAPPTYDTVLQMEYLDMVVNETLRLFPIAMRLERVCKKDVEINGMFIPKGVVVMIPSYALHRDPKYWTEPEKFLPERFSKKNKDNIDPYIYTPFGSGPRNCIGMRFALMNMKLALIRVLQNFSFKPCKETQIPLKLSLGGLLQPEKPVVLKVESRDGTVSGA

In the case of CC1(C)CCC(C)(C)c2cc(NC(=O)c3ccc(C(=O)O)cc3)ccc21, the CYP26A1/CYP26B1 (CYP26A1) is reported as 1.8.

CC1(C)CCC(C)(C)c2cc(C(=O)Nc3ccc(C(=O)O)cc3)ccc21 showed a CYP26A1/CYP26B1 (CYP26A1) of 2.5.

In the case of C/C(=C\c1ccc(C(=O)O)cc1)c1ccc2c(c1)C(C)(C)CCC2(C)C, the CYP26A1/CYP26B1 (CYP26A1) is reported as 1.1.

Molecule CC1(C)CCC(C)(C)c2cc(C(=O)COc3ccc(C(=O)O)cc3)ccc21 has a CYP26A1/CYP26B1 (CYP26A1) of 4.

For CC1(C)CCC(C)(C)c2cc(C(O)COc3ccc(C(=O)O)cc3)ccc21 (stereo not shown), the CYP26A1/CYP26B1 (CYP26A1) was 2.

For CC1(C)CCC(C)(C)c2cc(/C(COc3ccc(C(=O)O)cc3)=N\O)ccc21, the CYP26A1/CYP26B1 (CYP26A1) was 3.

CC1(C)C(=O)C(C)(C)c2cc(C(=O)Nc3ccc(C(=O)O)cc3)ccc21 showed a CYP26A1/CYP26B1 (CYP26A1) of 0.6.

CC1(C)CCSc2ccc(C#Cc3ccc(C(=O)O)cn3)cc21 gave a CYP26A1/CYP26B1 (CYP26A1) of 47.

CC1(C)CCC(C)(C)c2cc(C#Cc3ccc(C(=O)O)cc3)ccc21 gave a CYP26A1/CYP26B1 (CYP26A1) of 9.

With CCOC(=O)c1ccc(C#Cc2ccc3c(c2)C(C)(C)CCS3)nc1 the inhibition at 100 µM (CYP26A1) was 15%.

COC(=O)c1ccc(OCC(=O)c2ccc3c(c2)C(C)(C)CCC3(C)C)cc1 showed an inhibition at 100 µM (CYP26A1) of 15%.

COC(=O)c1ccc(OC/C(=N/O)c2ccc3c(c2)C(C)(C)CCC3(C)C)cc1 gave a CYP26A1/CYP26B1 (CYP26A1) of 8.

Molecule COC(=O)c1ccc(OC/C(=N\O)c2ccc3c(c2)C(C)(C)CCC3(C)C)cc1 has a CYP26A1/CYP26B1 (CYP26A1) of 7.

With C=C(c1ccc(C(=O)O)cc1)c1cc2c(cc1C)C(C)(C)CCC2(C)C the IC50 (CYP26A1; [5]) was 12300 nM and the IC50 (CYP26B1 [1]; [6]) was 4000 nM.

With CC1(C)CCC(C)(C)c2cc(C3(c4ccc(C(=O)O)cc4)SCCS3)ccc21 the IC50 (CYP26A1; [7]) was 1280 nM and the IC50 (CYP26B1 [1]; [8]) was 1090 nM.

For CC1(C)CCC(C)(C)c2cc(C3(c4ccc5cc(C(=O)O)ccc5c4)OCCO3)ccc21, the IC50 (CYP26A1; [7]) was 109 nM and the IC50 (CYP26B1 [1]; [8]) was 1030 nM.

With COc1ccc(-c2ccc(CCC(=O)O)cc2)cc1C12CC3CC(CC(C3)C1)C2 the IC50 (CYP26B1 [1]; Table 5, read-out: CYP26B1) was 516 nM.

Work on O=C(O)CCc1ccc(-c2ccc(O)c(C34CC5CC(CC(C5)C3)C4)c2)cc1 yielded an IC50 (CYP26A1; Table 5, read-out: CYP26A1) of 314 nM and an IC50 (CYP26B1 [1]; Table 5, read-out: CYP26B1) of 302 nM.

In the case of COc1ccc(-c2ccc(/C=C/C(=O)O)cc2)cc1C12CC3CC(CC(C3)C1)C2, the IC50 (CYP26A1; Table 5, read-out: CYP26A1) is reported as > 25000 nM and the IC50 (CYP26B1 [1]; Table 5, read-out: CYP26B1) is reported as > 25000 nM.

Molecule COc1ccc(Nc2ccc(/C=C/C(=O)O)cc2)cc1C12CC3CC(CC(C3)C1)C2 has an IC50 (CYP26A1; Table 5, read-out: CYP26A1) of 729 nM and an IC50 (CYP26B1 [1]; Table 5, read-out: CYP26B1) of 87 nM.

O=C(O)/C=C/c1ccc(Nc2ccc(O)c(C34CC5CC(CC(C5)C3)C4)c2)cc1 gave an IC50 (CYP26A1; Table 5, read-out: CYP26A1) of 232 nM and an IC50 (CYP26B1 [1]; Table 5, read-out: CYP26B1) of 95 nM.

Work on COc1ccc(Nc2ccc(CCC(=O)O)cc2)cc1C12CC3CC(CC(C3)C1)C2 yielded an IC50 (CYP26A1; Table 5, read-out: CYP26A1) of 51 nM and an IC50 (CYP26B1 [1]; Table 5, read-out: CYP26B1) of 51 nM.

Work on O=C(O)CCc1ccc(Nc2ccc(O)c(C34CC5CC(CC(C5)C3)C4)c2)cc1 yielded an IC50 (CYP26A1; Table 5, read-out: CYP26A1) of 1750 nM and an IC50 (CYP26B1 [1]; Table 5, read-out: CYP26B1) of 108 nM.

Molecule CC1(C)CCC(C)(C)c2cc(C3(c4ccc(CCC(=O)O)cc4)OCCO3)ccc21 has an IC50 (CYP26A1; Table 5, read-out: CYP26A1) of 340 nM and an IC50 (CYP26B1 [1]; Table 5, read-out: CYP26B1) of 14500 nM.

CC1(C)CCC(C)(C)c2cc(C3(c4ccc(/C=C/C(=O)O)cc4)SCCS3)ccc21 showed an IC50 (CYP26A1; Table 5, read-out: CYP26A1) of 6 nM and an IC50 (CYP26B1 [1]; Table 5, read-out: CYP26B1) of 4400 nM.

For CC1(C)CCC(C)(C)c2cc(Cc3ccc(CCC(=O)O)cc3)ccc21, the IC50 (CYP26A1; Table 5, read-out: CYP26A1) was > 10000 nM and the IC50 (CYP26B1 [1]; Table 5, read-out: CYP26B1) was 1660 nM.

In the case of CC1(C)CCC(C)(C)c2cc(C3(c4ccc(/C=C/C(=O)O)cc4)OCCO3)ccc21, the IC50 (CYP26A1; Table 5, read-out: CYP26A1) is reported as 239 nM and the IC50 (CYP26B1 [1]; Table 5, read-out: CYP26B1) is reported as > 10000 nM.

For CC1=C(/C=C/C(C)=C\C=C\C(C)=C\C(=O)O)C(C)(C)CCC1 [Example 9-cis-RA, 9-cis-RA], the “Vmax for 9-cis-4-OH-RA formation by CYP26B1” value (CYP26B1 [2]) was 3.6 pmol/min/pmol P450, the “fold greater Km than atRA for CYP26B1” value (CYP26B1 [2]) was 50 fold and the intrinsic clearance (CYP26B1 [2]; from Km and Vmax) was 6.5 µL/min. For the same molecule, the Km (CYP26B1 [2]; read-out: Km for 9-cis-4-OH-RA formation by CYP26B1, substrate 9-cis-RA 50-1000 nM, 5 min) was 555 nM.

With CC(C(c1ccc(Nc2nc3ccccc3s2)cc1)n1ccnc1)N(C)C (stereo not shown) [Example R116010, R116010] the IC50 (CYP2C8; bound stated) was > 1000 nM, the IC50 (CYP2C8; [9]) was 1760 nM and the “Inhibition of CYP3A4 (in words)” value (CYP3A4) was “potent CYP3A4 inhibitors”. The IC50 (CYP2C9) was > 1000 nM and the IC50 (CYP2C9; [10]) was 5760 nM.

CC1=C(/C=C/C(C)=C/C=C/C(C)=C/C(=O)O)C(C)(C)CCC1 [atRA, all-trans-retinoic acid] showed a Km (CYP26B1 [2]; read-out: Km of atRA for CYP26B1) of 19 nM.

Molecule CC1(C)CCC(C)(C)c2cc(C3(c4ccc(C(=O)O)cc4)OCCO3)ccc21 [drawing 145] has an IC50 (CYP26A1; [5]) of 3300 nM and an IC50 (CYP26B1 [1]; [6]) of 14200 nM.

For CC1(C)CCC(C)(C)c2cc(C3(c4ccc5cc(C(=O)O)ccc5c4)SCCS3)ccc21 [drawing 146], the IC50 (CYP26A1; [5]) was 61 nM and the IC50 (CYP26B1 [1]; [6]) was 1030 nM.

Molecule CC1(C)CCC(C)(C)c2cc(C3(c4ccc(C(=O)O)cc4)OCCO3)ccc21 [drawing 148] has an IC50 (CYP26A1; [7]) of 7780 nM and an IC50 (CYP26B1 [1]; [8]) of 12600 nM.

CC1(C)CCC(C)(C)c2cc(C3(c4ccc5cc(C(=O)O)ccc5c4)SCCS3)ccc21 [drawing 152] gave an IC50 (CYP26A1; [7]) of 61 nM.

With Clc1cccc(C(c2ccc3[nH]cnc3c2)n2ccnc2)c1 (stereo not shown) [liarozole] the IC50 (CYP26B1 [1]; Table 5, read-out: CYP26B1) was 18 nM, the “Inhibition of CYP2C8 (in words)” value (CYP2C8; pooled human liver microsomes) was “inhibited CYP2C8 potently” and the IC50 (CYP2C8; [9]) was 480 nM. The “Inhibition of CYP3A4 (in words)” value (CYP3A4) was “weak inhibitor”, the “effect on concentration of atRA in vivo” value [3] was “increase the concentration of atRA in vivo” and the “inhibition of other cytochromes of steroid biosynthesis” value [4] was “also inhibits other cytochromes involved in the biosynthetic pathways of testicular, ovarian and adrenal steroids”. The “Inhibition of CYP2C9 (in words)” value (CYP2C9; pooled human liver microsomes) was “weak inhibitor” and the IC50 (CYP2C9; [10]) was 1630 nM.

In the case of CCC(CC)[C@H](c1ccc(Nc2nc3ccccc3s2)cc1)n1cncn1 [talarozole, (R)—N-[4-[2-ethyl-1-(1H-1,2,4-triazol-1-yl)butyl]phenyl]-2-benzo-thiazolamine], the IC50 (CYP26A1; Table 5, read-out: CYP26A1) is reported as 5.1 nM, the IC50 (CYP26B1 [1]; Table 5, read-out: CYP26B1) is reported as 0.46 nM and the “Inhibition of CYP2C8 (in words)” value (CYP2C8; pooled human liver microsomes) is reported as “nanomolar affinity”. For the same molecule, the IC50 (CYP2C8; [9]) was 220 nM, the “Inhibition of CYP3A4 (in words)” value (CYP3A4) was “nanomolar affinity” and the “effect on concentration of atRA in vivo” value [3] was “increase the concentration of atRA in vivo”. For the same molecule, the “Inhibition of CYP2C9 (in words)” value (CYP2C9; pooled human liver microsomes) was “nanomolar affinity” and the IC50 (CYP2C9; [10]) was 680 nM.
